From PMC3684770 (Free Radical Biology & Medicine, 2013)
“And” between values parts separate entries of the source, which are not always exact repeats. Equal entries are not always repeated. Structures can show the parent of a compound that is named as a salt.

Columns and labels:
NSC34 cells = experiment: NSC34 oxidative stress assay (serum withdrawal, DCF); details: for Emax: NSC-34, 24 h, read-out: NSC34 oxidative stress assay Max reduction; for NSC34 oxidative stress assay Toxic dose: minimum dose at which toxicity was observed
Experimental: (§3) Media were then replaced with serum-free, phenol-free media for 5 h.

Nrf2-ARE pathway [1] = experiment: ARE reporter assay in C6 astrocyte cell line (C6-ARE); type: cell-based, rat
From the text: (§1) Chinese hamster ovary (CHO), NSC34 mouse motor neuronal cells […] The ARE-TK-GFP and TK-GFP reporter constructs were a kind gift from William E. Fahl McArdle Laboratory for Cancer Research, University of Wisconsin. […] The NSC34 cell lines stably expressing G93A mutant hSOD1 have been described previously. […] Mouse embryonic fibroblasts were generated and maintained as described previously.

D1 receptors = details: read-out: Ki D1 receptors; cited from earlier work
C6 astrocyte cell line = experiment: C6 oxidative stress assay (serum withdrawal, DCF); details: for Emax / IC50: Rattus norvegicus, Astrocyte; for Emax: 24 h, read-out: C6 oxidative stress assay Max reduction; for IC50: read-out: C6 oxidative stress assay IC50; for C6 oxidative stress assay Toxic dose: minimum dose at which toxicity was observed
Experimental: as §3

Nrf2-ARE pathway [2] = experiment: ARE reporter assay in CHO 4xARE-TK-GFP cells (Spectrum library hits); details: for Toxic dose: lowest dose at which a reduction in GFP fluorescence was observed
D4 receptors = details: read-out: Ki D4 receptors; cited from earlier work
[3] = test system: 1321N1 astrocyte cell line; experiment: 1321N1 oxidative stress assay (serum withdrawal, DCF); details: for Emax / IC50: Homo sapiens; for Emax: 1321-N1, 24 h, read-out: 1321N1 oxidative stress assay Max reduction; for IC50: 1321-N1, read-out: 1321N1 oxidative stress assay IC50; for 1321N1 oxidative stress assay Toxic dose: minimum dose at which toxicity was observed
Experimental: as §3

[4] = test system: NQO1 and HO-1 gene expression; experiment: Q-RTPCR in astrocytes from SOD1G93A transgenic mice; type: cell-based, mouse; details: G93A SOD1 astrocytes, 24-h pretreatment at EC90 (andrographolide also EC50)
Experimental: (§2) Nrf2 Target gene expression was determined using Q-RTPCR as described previously using the following primers: Ho-1 forward primer, cac ttc gtc aga ggc ctg cta; Ho-1 reverse primer, gcg gtg tct ggg atg agc ta; Nqo1 forward primer, cgc ctg agc cca gat att gt; Nqo1 reverse primer, act gca atg gga act gaa ata tca; GAPDH forward, gaa acc tgc caa gta tga tga cat; GAPDH reverse, ggt cct cag tgt agc cca aga t.

primary mouse astrocytes = experiment: Total glutathione assay in primary mouse astrocytes and conditioned media; type: cell-based; details: 24-h pretreatment
Experimental: Primary astrocytes were grown to confluency in 24-well plates and then treated with drug (or 0.05% DMSO vehicle) in phenol red-free DMEM containing 10% FBS and penicillin/streptomycin for 24 h. Conditioned medium was collected and astrocytes were then washed in ice-cold PBS before addition of 250 μl/well of sulphosalicylic acid (SSA, 5% (w/v)). Plates were frozen at −80 °C and thawed at 37 °C, twice, and then incubated at 4 °C for 15 min. The supernatant was removed and centrifuged at 13,000 g for 5 min. Conditioned medium samples were incubated at 80 °C for 15 min and then centrifuged at 13,000 g for 5 min. Samples were either used immediately or stored at −80 °C. Reaction mixture (150 μl/well; 100 mM potassium phosphate buffer, pH 7.0, 1 mM EDTA, 6 Units/ml glutathione reductase, 1.5 mg/ml 5,5′-dithiobis(2-nitrobenzoic acid)) was added to 10 μl of each sample or glutathione standard (0–50 μM reduced glutathione) in a 96-well plate and incubated at room temperature for 5 min before addition of 50 μl/well of NADPH solution (0.16 mg/ml). A412nm was measured every minute for 15 min and the total glutathione concentration (GSH + GSSG) was calculated from initial rates. Samples were tested in triplicate.

[5] = test system: HO-1 and NQO1 gene expression; experiment: Q-RTPCR of Nrf2-regulated genes in C6 cells; type: cell-based, rat; details: C6, 24-h treatment at EC50 and EC90
Experimental: as §2

[6] = test system: HO-1 and NQO1 gene expression; experiment: Q-RTPCR of Nrf2-regulated genes in primary mouse astrocytes; type: cell-based; details: 24-h treatment at EC50 and EC90
Experimental: as §2

P-glycoprotein = test system: P-glycoprotein; parameters: method as in PMID 19093450; details: cited from earlier work
[7] = test system: primary mouse motor neurons; experiment: Primary motor neuron/astrocyte coculture, menadione stress; type: cell-based; details: 24-h pretreatment, 6 h 10 µM menadione
Experimental: Mouse glial cultures were established based on published methods [[68,69]]. Primary spinal cord motor neurons (MNs) were cultured from E13.5 C57Bl/6 mouse embryos as described previously. Cocultures were allowed to establish for 2 weeks and neuroprotection assays performed. Cocultures were exposed to drug or vehicle for 24 h followed by a 6-h treatment with menadione (10 μM) to induce oxidative stress or with no stress to determine the effect of drug alone. Following stress treatment, coverslips were washed 3 times, fixed, and permeabilised, and MNs immunostained with SMI32 (Covance, UK). Total MNs were counted by fluorescence microscopy in a 1.5 cm^2 area per coverslip. A minimum of three repeats in triplicate were performed per condition. Both vehicle and drug treatments were counted with and without stress treatment, and results were analysed by two-way ANOVA using Bonferroni post tests.

heme oxygenase 1 (HO-1) = experiment: HO-1 immunofluorescence staining in primary mouse astrocytes; type: cell-based; details: EC90 concentration, 24 h
NQO1 protein expression = experiment: Western blot NQO1 in wild-type MEFs; type: cell-based, mouse; details: EC90 concentration, 24 h
Experimental: Cells were isolated and lysed in a RIPA buffer containing protease inhibitor cocktail (Roche), quantified for protein content by Bradford assay, and loaded 30 μg per sample. Samples were run on a 12.5% acrylamide gel under reducing conditions with a prestained marker and transferred to polyvinylidene fluoride membrane and blocked in 5% milk. Mouse anti-alpha-tubulin, clone DM1A (Sigma), and rabbit anti-NQO1 (kind gift from Prof. John Hayes, University of Dundee) were used at 1 in 1000 dilution in Tris-buffered saline containing Tween. Polyclonal goat anti-mouse (Abcam-Ab97040) and polyclonal goat anti-rabbit (Dako Cat. No. P0448), horseradish peroxidase-conjugated secondary antibodies were used for detection of relevant primary antibodies. Bands were visualised by enhanced chemiluminescence reagents (Geneflow EZ-ECL kit). Relative band intensities were captured, using subsaturation, and quantified using a Gbox iChem XT digital imaging system (Syngene).

HO-1 gene expression = experiment: Pharmacodynamic analysis: gene expression in spinal cord; type: in vivo, mouse; details: 5 mg/kg sc, 48 h postdosing
From the text: RNA was isolated using Qiagen RNeasy mini kit and Q-RTPCR performed on HO-1 and NQO-1 genes as described previously.

SOD1G93A transgenic mice = experiment: SOD1G93A transgenic mouse model of ALS; type: in vivo
Experimental: Pharmacology experiments in SOD1^G93A transgenic mice were conducted according to the published guidelines for studies in this model. […] The litters were split to enable an even distribution of sex and parentage between the two comparison groups and the groups randomly assigned to treatment or control. […] Behavioural assessment was carried out blinded to treatment group. Rotarod training was performed over 3 days with 2 trials per day. Subsequently, the rotarod test was performed once per week in the afternoon. On each day, mice were tested twice with a rest period in between tests. The best score was taken for analysis. […] Latency to fall (s) was recorded in seconds for each mouse. […] They were placed on the catwalk apparatus in complete darkness and the recording of gait patterns was performed in a separate room. Multiple runs were recorded for each mouse and three selected for analysis. Processing of gait data was performed using the dedicated software, with the assignment of limbs performed manually and subsequent automated calculation of gait parameters.
Specimens were incubated overnight in 20% sucrose and then embedded in OCT embedding matrix. Thirty five-micrometer-thick longitudinal sections were collected. […] Images were captured on an Incell 2000 and innervated (yellow) or denervated (red) end-plates were counted with a minimum of 1000 NMJs counted per animal.

Nrf2-ARE pathway [8] = experiment: ARE reporter assay in NSC34 cell line (NSC34-ARE); type: cell-based, mouse
From the text: as §1

[9] = Pharmacokinetic analysis in C57Bl/6 mice; type: in vivo, mouse; details: C57Bl/6, mouse, brain / plasma; iv 1 mg/kg; read-out: brain uptake (AUCinfinity brain / AUCinfinity plasma)
Experimental: Pharmacokinetic studies were performed by Pharmidex (London, UK). […] All concentrations were calculated with reference to the relevant standard curve. An extraction buffer (EB) solution of acetonitrile with 0.1% formic acid (Fisher Scientific, HPLC grade) and 500 ng/ml of propranolol as the internal standard (IS) was used for in all extraction protocols.

[10] = test system: primary fibroblasts from ALS patients; experiment: Oxidative stress assay in ALS patient and control fibroblasts; type: cell-based, human; details: 4 µM
Experimental: Fibroblasts were obtained from human controls (n=3) and ALS patients with I113T SOD1 mutations (n=3) and sporadic ALS patients (n=2). […] The cells were incubated at 37 °C/5% CO2 overnight. The following day the media were removed and the cells were washed with 200 µl 1XP BS. Phenol red-free DMEM/F12 media (Sigma D6434) was added in the presence of 10% serum/2 mM Gln (++), 10% serum/0 mM Gln (+−), or 0% serum/0 mM Gln (−−). Cells were incubated at 37 °C/5% CO2 for 5 h.
Carboxy-H2DCFDA fluorescence was normalised to live cell number (total EthD1 signal after freeze/thaw – EthD1 signal after assay) to compare between the different cell lines. Data were analysed by one-way ANOVA with Bonferroni post tests using GraphPad Prism
DMEM/F12 (50 µl) media were added in the presence of 10% serum/0 mM Gln (+−) and the cells were incubated at 37 °C and 5% CO2 for 5 h.
The data were tested for normality and analysed by one-way ANOVA using GraphPad Prism.

[11] = test system: primary fibroblasts from ALS patients; experiment: Menadione-induced cell death in fibroblasts (MTT); type: cell-based, human; details: sporadic and I113T SOD1 ALS fibroblasts, 4 µM
Experimental: The method used was essentially as described previously. Briefly methylthiazolyldiphenyl-tetrazolium bromide (MTT) was added to the cells and a blank well to a final concentration 0.5 mg/ml and incubated at 37 °C for 1–3 h depending on the cell line used. Cells and reaction product were solubilised in 20% SDS/50% DMF for 1 h with shaking at room temperature before reading the absorbance at 595 nm.

SMILES: CN1CCc2cccc3c2[C@H]1Cc1ccc(O)c(O)c1-3 [Apomorphine hydrochloride, reference compound]
- Emax (NSC34 cells; Mus musculus): 25%
- IC50 (NSC34 cells; Mus musculus, NSC-34, read-out: NSC34 oxidative stress assay IC50): 174 nM
- NSC34 oxidative stress assay Toxic dose (NSC34 cells): 10 µM
- dose showing toxicity (Nrf2-ARE pathway [1]; C6-ARE, highest dose): 30 µM
- Ki (D1 receptors): 370 nM
- Emax (C6 astrocyte cell line): 62%
- IC50 (C6 astrocyte cell line): 1690 nM
- C6 oxidative stress assay Toxic dose (C6 astrocyte cell line): None
- EC50 (Nrf2-ARE pathway [2]; Cricetulus griseus): 25900 nM
- Toxic dose (Nrf2-ARE pathway [2]): 100 µM
- Ki (D4 receptors): 4.4 nM
- Emax [3]: 79%
- IC50 [3]: 1700 nM
- 1321N1 oxidative stress assay Toxic dose [3]: None

SMILES: C=C1CC[C@@H]2[C@](C)(CO)[C@H](O)CC[C@@]2(C)[C@@H]1C/C=C1/C(=O)OC[C@H]1O [Andrographolide]
- Emax (NSC34 cells; Mus musculus): 0%
- NSC34 oxidative stress assay Toxic dose (NSC34 cells): 10 µM
- Emax (C6 astrocyte cell line): 69%
- IC50 (C6 astrocyte cell line): 192 nM
- C6 oxidative stress assay Toxic dose (C6 astrocyte cell line): 10 µM
- transcripts for NQO1 and HO1 [4]: significant increase in transcripts
- total glutathione levels (primary mouse astrocytes): enhance glutathione production
- HO-1 and NQO1 gene expression [5]: statistically significant changes in gene expression
- HO-1 and NQO1 gene expression [6]: statistically significant changes in gene expression
- P-glycoprotein substrate (P-glycoprotein): substrate
- EC50 (Nrf2-ARE pathway [2]; Cricetulus griseus): 740 nM
- maximal fold induction (Nrf2-ARE pathway [2]; Cricetulus griseus, CHO, 24 h, read-out: Fold GFP induction): 3.61
- Toxic dose (Nrf2-ARE pathway [2]): 100 µM
- motor neuron numbers after menadione [7]: significant neuroprotective effects
- HO-1 staining index (heme oxygenase 1 (HO-1)): significant increase in HO-1 staining
- Emax [3]: 35%
- IC50 [3]: 501 nM
- 1321N1 oxidative stress assay Toxic dose [3]: 10 µM
- NQO1 protein expression, fold over vehicle (NQO1 protein expression): 3.6 fold and > 3 fold

SMILES: CN1CCc2cccc3c2[C@@H]1Cc1ccc(O)c(O)c1-3 [S[+]-apomorphine]
- potency of Nrf2-ARE activation compared with the R[–] enantiomer (Nrf2-ARE pathway [1]; C6 cells): equally potent
- EC50 (Nrf2-ARE pathway [1]; Rattus norvegicus, C6 astrocyte cell line, concentration used in fibroblast assay, read-out: approximate EC50 concentration): ~4000 nM
- transcripts for NQO1 and HO1 [4]: significant increase in transcripts
- total glutathione levels (primary mouse astrocytes): enhance glutathione production
- HO-1 gene induction in whole spinal cord (HO-1 gene expression): 3.5 fold
- HO-1 and NQO1 gene expression [5]: statistically significant changes in gene expression
- HO-1 and NQO1 gene expression [6]: statistically significant changes in gene expression
- time taken to reach a 20% decline in rotarod performance (median) (SOD1G93A transgenic mice; 5 mg/kg sc daily from Day 21, vehicle 6 weeks): 8 weeks
- oxidised glutathione levels in spinal cord (SOD1G93A transgenic mice; 60 days of age, vehicle 7.1): 4.2 µM
- gastrocnemius muscle innervation (SOD1G93A transgenic mice; 60 days of age, vehicle 28.1%): 39.5%
- survival (SOD1G93A transgenic mice; failure of the righting response within 10 s): did not observe a significant improvement in survival
- fore-limb and hind-limb stride length (gait analysis) (SOD1G93A transgenic mice; later stages of disease): significant delay in decline
- motor neuron numbers at end-stage (SOD1G93A transgenic mice; mouse, in vivo): did not observe a significant improvement
- activation of Nrf2-ARE reporter (Nrf2-ARE pathway [8]): shows some activation
- concentration showing activation of Nrf2-ARE reporter (Nrf2-ARE pathway [8]): ≥ 1 µM
- motor neuron numbers after menadione [7]: significant neuroprotective effects
- Kp [9]: 2.28
- reduction of oxidative stress (DCF) in control fibroblasts ([10]; control fibroblasts): nonsignificant
- basal oxidative stress (DCF) in patient fibroblasts ([10]; sporadic and I113T SOD1 ALS fibroblasts, 24 h): significant reduction in basal oxidative stress
- menadione-induced cell death (MTT) [11]: significantly attenuated cell death
